Some test systems named below: RPMI-8226 leukemia; LOX IMVI melanoma; CCRF-CEM leukemia; MDA-MB-231 breast; EKVX NSCLC; BT-549 breast; OVCAR-8 ovarian; NCI-H23 lung; NCI/ADR-RES ovarian; ACHN renal; HCT-116 colon; HOP-92 NSCLC; SN12C renal; SK-OV-3 ovarian; U251 CNS; NCI-H460 lung; SNB-75 CNS.
Common to all, as to test: growth of human tumour cells (NCI), 48 h

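Assay format: 96-well plates, 48-hour exposure. TGI is the concentration that stops growth completely.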 A value given as a limit tells only on which side of the number the result lay.

As for `CC1(C)C=Cc2c(cc3oc4ccc5c(c4c(=O)c3c2O)C=CC(C)(C)O5)O1`, the TGI with RPMI-8226 leukemia, with LOX IMVI melanoma, with CCRF-CEM leukemia, in the experiment with MDA-MB-231 breast, in the experiment with EKVX NSCLC and in the experiment on BT-549 breast was > 100 µM in each case. In addition, the TGI in the experiment on OVCAR-8 ovarian, in the experiment with NCI-H23 lung, in the experiment on NCI/ADR-RES ovarian, in the experiment on ACHN renal, in the experiment with HCT-116 colon and in the experiment on HOP-92 NSCLC was > 100 µM throughout. In addition, the TGI with SN12C renal, in the experiment on SK-OV-3 ovarian and with U251 CNS was > 100 µM each time.
In the case of `C1=Nc2ccc(cc2)N=Cc2ccccc2OCc2cccc(n2)COc2ccccc21`, the TGI in the experiment on NCI-H460 lung, in the experiment on LOX IMVI melanoma, with CCRF-CEM leukemia, in the experiment with MDA-MB-231 breast, with EKVX NSCLC and in the experiment with BT-549 breast was > 100 µM in each case. The TGI with OVCAR-8 ovarian, in the experiment with NCI-H23 lung, with NCI/ADR-RES ovarian, in the experiment with ACHN renal, in the experiment on HCT-116 colon and with HOP-92 NSCLC was > 100 µM each time. Besides, the TGI in the experiment on SN12C renal, with SK-OV-3 ovarian and with U251 CNS was > 100 µM each time.
For `O=c1c(-c2c(-c3ccccc3)oc3ccc(Cl)cc3c2=O)c(-c2ccccc2)oc2ccc(Cl)cc12`, the TGI in the experiment on RPMI-8226 leukemia is > 100 µM; in the experiment on NCI-H460 lung it was > 100 µM; with LOX IMVI melanoma, > 100 µM; in the experiment with CCRF-CEM leukemia it was > 100 µM; in the experiment with MDA-MB-231 breast it was > 83.7 µM; with EKVX NSCLC it was > 100 µM. Moreover, the TGI with SNB-75 CNS was > 62.2 µM; with OVCAR-8 ovarian, > 100 µM; with NCI-H23 lung it was > 100 µM; with NCI/ADR-RES ovarian, > 100 µM; in the experiment on ACHN renal, > 100 µM; in the experiment on HCT-116 colon, > 100 µM. In addition, the TGI in the experiment with HOP-92 NSCLC is > 95 µM; with SN12C renal it was > 100 µM; with SK-OV-3 ovarian, > 89.4 µM; with U251 CNS, > 100 µM.
As for `CC1=[N+]([O-])C(C)(C)N(N=O)C1(C)C`, the TGI in the experiment on RPMI-8226 leukemia, with NCI-H460 lung, with CCRF-CEM leukemia, in the experiment on MDA-MB-231 breast, in the experiment with EKVX NSCLC and with BT-549 breast was > 10 µM each time. Further, the TGI in the experiment on OVCAR-8 ovarian, with NCI-H23 lung, with NCI/ADR-RES ovarian, with ACHN renal, in the experiment with HCT-116 colon and in the experiment on HOP-92 NSCLC was > 10 µM in each case. The TGI in the experiment on SN12C renal and with U251 CNS was > 10 µM throughout.
On to `Oc1cccc(-c2ccc3c4c2O[C@H]2c5[nH]c6ccccc6c5C[C@@]5(O)[C@@H](C3)N(CC3CC3)CC[C@]425)c1`, for which the TGI is 3.19 µM in the experiment with LOX IMVI melanoma; 10.4 µM with CCRF-CEM leukemia; 4.03 µM with MDA-MB-231 breast; 29.7 µM in the experiment on EKVX NSCLC; 23 µM with BT-549 breast; 3.23 µM with OVCAR-8 ovarian. Further, the TGI is 5.17 µM in the experiment on NCI-H23 lung; 4.69 µM with NCI/ADR-RES ovarian; 3.67 µM in the experiment with ACHN renal; 3.22 µM with HCT-116 colon; 4.42 µM in the experiment on HOP-92 NSCLC; 3.04 µM in the experiment on SN12C renal.
With `COc1cc(C2SCC(=O)N2Cc2ccccc2)cc(OC)c1OC` (stereo not drawn), the TGI in the experiment with RPMI-8226 leukemia, in the experiment with NCI-H460 lung, in the experiment on LOX IMVI melanoma, in the experiment on CCRF-CEM leukemia, with MDA-MB-231 breast and with EKVX NSCLC was > 100 µM in each case. The TGI in the experiment on BT-549 breast, in the experiment on OVCAR-8 ovarian, with NCI-H23 lung, in the experiment on NCI/ADR-RES ovarian, in the experiment on ACHN renal and in the experiment with HCT-116 colon was > 100 µM each time. Moreover, the TGI with HOP-92 NSCLC was 71.8 µM; in the experiment with SN12C renal, > 100 µM; in the experiment on SK-OV-3 ovarian it was > 100 µM; in the experiment on U251 CNS, > 100 µM.
Take `CC1(C)Oc2ccc3c(=O)c(-c4ccccc4)c(-c4ccccc4)oc3c2C1C(=O)O` (stereo not drawn): the TGI with CCRF-CEM leukemia, with MDA-MB-231 breast, in the experiment with EKVX NSCLC, in the experiment with BT-549 breast, with OVCAR-8 ovarian and in the experiment with NCI-H23 lung was > 100 µM in each case. Also, the TGI in the experiment with NCI/ADR-RES ovarian, with HCT-116 colon, in the experiment on SN12C renal, in the experiment with SK-OV-3 ovarian and with U251 CNS was > 100 µM each time.
Regarding `O=C1c2sc(-c3ccc(F)cc3)cc2-n2cccc21`, the TGI with RPMI-8226 leukemia was > 100 µM; with NCI-H460 lung, > 100 µM; in the experiment with LOX IMVI melanoma it was > 100 µM; with CCRF-CEM leukemia, > 100 µM; in the experiment with MDA-MB-231 breast, 86.3 µM; in the experiment on EKVX NSCLC, > 100 µM. For the same molecule, the TGI with SNB-75 CNS is 43.7 µM; in the experiment with BT-549 breast, > 100 µM; in the experiment with OVCAR-8 ovarian it was > 100 µM; in the experiment with NCI/ADR-RES ovarian, > 100 µM; in the experiment on ACHN renal, > 100 µM; with HCT-116 colon it was 58.7 µM. Further, the figures for the TGI with SN12C renal, with SK-OV-3 ovarian and in the experiment on U251 CNS were 49.6 µM, 63 µM and 40.2 µM, respectively.
Consider `Cc1ccc2c3c(cnc2n1)C(=O)OCCN3C`, for which the TGI in the experiment with NCI-H460 lung, in the experiment on LOX IMVI melanoma, in the experiment on CCRF-CEM leukemia, in the experiment on MDA-MB-231 breast, in the experiment with EKVX NSCLC and with BT-549 breast was > 100 µM throughout. The TGI in the experiment on OVCAR-8 ovarian, in the experiment on NCI-H23 lung, with NCI/ADR-RES ovarian, in the experiment on ACHN renal, with HCT-116 colon and with HOP-92 NSCLC was > 100 µM in each case. The TGI in the experiment on SN12C renal and with U251 CNS was > 100 µM each time.

The record behind these values is PubChem BioAssay (NCI).
